This note sets out measurements from article PMC7004565, “Nucleotide inhibition of the pancreatic ATP-sensitive K^+ channel explored with patch-clamp fluorometry” (eLife, 2020).

In one assay the target is T1, Kir6.2*-GFP + SUR-K205A (Homo sapiens, UniProt Q14654).
T1 construct: ANAP labelling is specific and only full-length Kir6.2 is expressed at the cell membrane; expressed in transfected cells; host or cells: HEK-293T
In words: ANAP fluorescence quenching in excised patches (patch-clamp fluorometry). To be noted: excised patches (PCF), Hill fit. Type of assay: binding. The source says: We introduced a charge neutralization (alanine, K205A) and a charge reversal (glutamate, K205E) mutation at this position and measured simultaneous nucleotide binding and current inhibition with PCF (Figure 4B,C,D). The binding and inhibition curves for TNP-ATP almost perfectly overlaid for the SUR1-K205A mutant (Figure 4C). The same was also true for SUR1-K205E (Figure 4D). Data were fit with the MWC-type model as before. […] This was reflected by a decrease in the estimated KA for TNP-ATP, which correlated with the degree of conservation of the mutation, that is we observed a larger effect for the charge reversal compared to the charge neutralization mutation (Figure 4E). However, in addition to direct effects of K205 on nucleotide binding, we also observed a shift in D for both mutations (Figure 4E).
Currents were measured as described above.
ANAP bleaching was corrected as for the unroofed binding experiments with Equation 1 (Figure 2—figure supplement 3A). Due to the lower signal-to-noise ratio for PCF compared to the unroofed membranes, we performed experiments from both high-to-low and low-to-high TNP-ATP concentrations to minimise artifacts from our bleaching corrections.
Background: In patch-clamp work, channel activity is measured electrically.

The next assay concerns the target T2, Kir6.2*,G334D-GFP + SUR1 (Homo sapiens, UniProt Q14654, G334D).
T2 construct: ANAP labelling is specific and only full-length Kir6.2 is expressed at the cell membrane; expressed in transfected cells; host or cells: HEK-293T
In words: FRET (ANAP quenching) nucleotide binding in unroofed membranes. To be noted: Hill fit. The source says:
To measure nucleotide binding, cells transfected with Kir6.2*-GFP + SUR1 were briefly sonicated, leaving behind unroofed plasma membrane fragments ([Heuser, 2000]; [Zagotta et al., 2016]; [Puljung et al., 2019]) containing ANAP-labelled KATP channels with the intracellular nucleotide-binding sites exposed to the bath solution. The sample was excited with a 385 nm LED and emitted fluorescence from the membrane fragments was passed through a spectrometer, allowing us to separate ANAP, GFP, and TNP-ATP fluorescence by peak wavelength (Figure 1E,F). As expected from FRET, increasing the concentration of TNP-ATP caused a decrement in the ANAP peak at 472 nm and a concomitant increase in the TNP-ATP peak at 561 nm (Figure 1F). We used the quenching of the ANAP peak as a direct measure of TNP-ATP binding as this signal was specific to KATP. In contrast, the peak TNP-ATP fluorescence may include contributions from both specific and non-specific nucleotide binding, as well as direct excitation of TNP-ATP in solution by the 385 nm excitation light. Due to the sharp cut-off of the GFP emission spectrum at shorter wavelengths, our measurements of peak ANAP fluorescence were unaffected by the presence of the GFP tag on Kir6.2. […]
Epifluorescence imaging and spectroscopy were performed using a Nikon Eclipse TE2000-U microscope with a 60x water immersion objective (Plan Apo VC, NA = 1.2, Nikon; Kingston upon Thames, UK) or a 100x oil immersion objective (Nikon, Apo TIRF, NA = 1.49). […] Fluorescence spectra were collected by exciting ANAP as above but using a 400 nm long-pass emission filter (ThorLabs), then passing emitted light through an IsoPlane 160 Spectrometer (Princeton Instruments; Trenton, NJ) with a 300 grooves mm^-1 grating. […]
Unroofed membranes were prepared as described previously ([Heuser, 2000]; [Zagotta et al., 2016]; [Puljung et al., 2019]). […] Unroofed membrane fragments were nearly invisible in bright-field images and identified by their GFP and ANAP fluorescence. […]

Molecules are shown by their SMILES.

T1 sequence (Q14654 whole entry, stated change not applied): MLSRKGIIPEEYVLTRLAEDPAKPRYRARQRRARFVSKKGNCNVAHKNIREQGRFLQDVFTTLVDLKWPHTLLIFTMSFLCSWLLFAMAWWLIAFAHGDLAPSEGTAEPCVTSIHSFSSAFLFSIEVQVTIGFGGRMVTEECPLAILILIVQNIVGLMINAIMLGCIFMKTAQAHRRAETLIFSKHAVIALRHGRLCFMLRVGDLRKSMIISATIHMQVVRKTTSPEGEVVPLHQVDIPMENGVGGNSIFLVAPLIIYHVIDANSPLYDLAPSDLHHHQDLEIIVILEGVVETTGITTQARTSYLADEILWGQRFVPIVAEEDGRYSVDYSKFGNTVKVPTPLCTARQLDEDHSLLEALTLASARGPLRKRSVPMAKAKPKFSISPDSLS
T1 sequence (Q09428 whole entry K205A partner): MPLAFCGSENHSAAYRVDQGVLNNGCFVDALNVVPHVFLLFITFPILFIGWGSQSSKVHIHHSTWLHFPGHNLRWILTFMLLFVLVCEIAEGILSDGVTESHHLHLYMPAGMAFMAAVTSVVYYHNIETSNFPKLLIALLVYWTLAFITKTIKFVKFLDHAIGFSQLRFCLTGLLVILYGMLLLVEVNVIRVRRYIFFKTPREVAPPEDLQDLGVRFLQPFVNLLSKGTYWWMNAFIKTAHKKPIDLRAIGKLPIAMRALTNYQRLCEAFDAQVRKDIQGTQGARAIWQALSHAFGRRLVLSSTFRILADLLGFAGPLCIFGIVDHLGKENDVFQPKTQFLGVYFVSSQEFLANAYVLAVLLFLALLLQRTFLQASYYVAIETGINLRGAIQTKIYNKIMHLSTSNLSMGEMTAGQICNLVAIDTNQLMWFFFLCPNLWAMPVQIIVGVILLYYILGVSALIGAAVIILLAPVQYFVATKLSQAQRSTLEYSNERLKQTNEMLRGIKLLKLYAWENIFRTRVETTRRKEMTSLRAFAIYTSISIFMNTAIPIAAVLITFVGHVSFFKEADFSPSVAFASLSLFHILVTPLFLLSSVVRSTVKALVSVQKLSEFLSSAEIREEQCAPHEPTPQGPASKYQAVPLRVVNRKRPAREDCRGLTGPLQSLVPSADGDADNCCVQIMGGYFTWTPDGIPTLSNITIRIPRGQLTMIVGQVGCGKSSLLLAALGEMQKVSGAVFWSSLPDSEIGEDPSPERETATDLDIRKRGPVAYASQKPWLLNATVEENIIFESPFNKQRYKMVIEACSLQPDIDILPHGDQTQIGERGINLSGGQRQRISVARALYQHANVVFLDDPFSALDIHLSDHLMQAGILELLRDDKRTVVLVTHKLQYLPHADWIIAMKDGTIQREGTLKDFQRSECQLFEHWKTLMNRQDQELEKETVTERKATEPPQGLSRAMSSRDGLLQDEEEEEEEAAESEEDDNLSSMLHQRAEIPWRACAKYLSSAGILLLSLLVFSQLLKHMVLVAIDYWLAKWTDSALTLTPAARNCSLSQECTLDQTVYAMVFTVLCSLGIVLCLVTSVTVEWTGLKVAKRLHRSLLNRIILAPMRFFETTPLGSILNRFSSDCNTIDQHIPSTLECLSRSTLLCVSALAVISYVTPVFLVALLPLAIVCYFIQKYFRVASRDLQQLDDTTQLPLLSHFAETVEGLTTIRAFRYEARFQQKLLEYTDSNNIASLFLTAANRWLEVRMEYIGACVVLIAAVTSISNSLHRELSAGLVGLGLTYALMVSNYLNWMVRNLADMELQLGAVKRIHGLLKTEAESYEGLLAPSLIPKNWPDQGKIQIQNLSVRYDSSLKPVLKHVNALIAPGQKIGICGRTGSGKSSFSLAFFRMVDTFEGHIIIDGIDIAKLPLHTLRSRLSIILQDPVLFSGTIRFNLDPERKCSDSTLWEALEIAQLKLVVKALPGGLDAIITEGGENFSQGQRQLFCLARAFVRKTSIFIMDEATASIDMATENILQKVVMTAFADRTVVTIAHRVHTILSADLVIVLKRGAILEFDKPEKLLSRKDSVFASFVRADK
T2 sequence (Q14654 whole entry G334D): as the sequence (Q14654 whole entry, stated change not applied) above, with G334D counted along it
T2 sequence (Q09428 whole entry partner): as the sequence (Q09428 whole entry K205A partner) above, with A205K counted along it

In the case of `Nc1ncnc2c1ncn2[C@@H]1O[C@H](COP(=O)(O)OP(=O)(O)OP(=O)(O)O)[C@H]2OC3(O[C@H]21)C([N+](=O)[O-])=CC(=[N+]([O-])[O-])C=C3[N+](=O)[O-]` (stereo partly drawn) [TNP-ATP, trinitrophenyl-ATP], the “h (Hill coefficient) fluorescence quenching” value at Kir6.2*-GFP + SUR-K205A is 0.73; on Kir6.2*,G334D-GFP + SUR1 it was 2.63. Further, the Emax amounted to 100% on Kir6.2*-GFP + SUR-K205A (fraction) and 8% on Kir6.2*,G334D-GFP + SUR1 (fraction, read-out: Emax fluorescence quenching). Besides, the EC50 was 204 µM at Kir6.2*-GFP + SUR-K205A (n = 9) and 493 µM at Kir6.2*,G334D-GFP + SUR1 (n = 9, read-out: EC50 fluorescence quenching).

As a reminder, the Emax is the maximal effect, on the per cent scale that the assay sets. What is called EC50 is the concentration at which the effect is half-maximal.
